Source: patent US20150181873A1, “HERBICIDE-RESISTANT SUNFLOWER PLANTS, POLYNUCLEOTIDES ENCODING HERBICIDE=RESISTANT ACETO HYDROXY ACID SYNTHASE LARGE SUBUNIT PROTEINS, AND METHODS OF USE” (NIDERA S.A., priority 2013, published 2015)

Legend:
Type in all cases: in vivo, Helianthus annuus
[1] = tested on: sunflower line GIM 5-7 (A205V); assay: Greenhouse imazapir dose response, GIM 5-7; conditions: GIM5-7 (A205V), 14 DAT
Description: (§1) A greenhouse study was conducted to quantify and contrast the imazapir sensivity of the mutants A122T and A205V in different genetic backgrounds at the whole plant level in sunflower. Seeds of the different sunflower lines that were used in this study were obtained under field conditions.
(§2) Seeds were sown in Petri dishes and, after germination, plantlets were transplanted to pots of 10 cm of diameter in a potting media consisting of equal parts of vermiculite, soil and sand. Plants were grown in a greenhouse under natural light conditions supplemented with 400 W sodium halide lamps to provide a 16 hrs daylength. Day/night temperatures were 25 and 20° C., respectively. At the V2 stage 10 plants of each genotype were randomly assigned to each treatment consisting of […] imazapir doses (0, 40, 80, 160, 240, 320, 400 and 480 g ai/ha), and a zero-time biomass determination. Experiment was arranged as a randomized block design with a full factorial (sunflower line×treatment) arrangement of treatments and 10 replications.
(§3) On the day of herbicide application ten plants of each genotype were cut at the cotyledonal node and dried at 60° C. for 48 hrs zero-time for dried weight determination. […] Height was determined as the distance between the cotyledonal node and the apex of each plant. For root biomass determination, each plant was taken from the pot and the potting media was washed out from the roots. Above ground biomass data from each line were converted to biomass accumulation after application by subtracting the appropriate average zero-time biomass from each sample. Dry biomass data were converted to percentages of the untreated control plants within each line to allow direct comparisons between groups.

[2] = tested on: sunflower restorer line GIM 5-6 (A122T); assay: Greenhouse imazapir dose response, GIM 5-6; conditions: GIM5-6 (A122T), 14 DAT
Description: as §1, §2, §3

[3] = tested on: Conventional non-Clearfield sunflower variety; assay: Greenhouse spray injury rating, conventional variety; conditions: imazapyr 240 gm ai/ha, scale 0-9
From the text: Sunflower lines S4897, Clearfield® sunflower varieties A, B, C and a conventional non-Clearfield variety were sprayed with three rates of imazamox (Raptor™), 100, 200 and 300 gm ai/ha plus 0.5% Sun It II and two rates of imazapyr (Arsenal™) 160 and 360 gm ai/ha plus 0.5% Sun It II when the plants were at the two to three leaf stage. Ratings were taken at 14 days after application (DAT) for injury. Injury was rated on a scale from 0 to 9 where 0=no injury to 9=dead plant. Twelve plants were sprayed per herbicide/rate treatment. Statistical analysis was conducted with STATGRAPHICS Plus 5.0 by using ANOVA and LSD procedures.
After plants were sprayed, it was realized that a height difference between S4897 and other sunflower varieties would have impacted the actual herbicide dose that was delivered. The spray boom height had been calibrated against S4897 and since the other varieties were taller and closer to the boom they would have received a greater dose of herbicide. Rates were recalibrated for the other varieties to determine the approximate dose they would have received. Assessments were made as presented in Table 2 since it was not possible to make a direct rate comparison due to the effect of the height. For example injury scores were compare for S4897 treated imazamox rate 100 gm ai/ha to the other varieties treated at 75 gm ai/ha. The treatment dose of 300 gm ai/ha for line S4897 was equivalent to the treatment of 200 gm ai/ha for the other varieties, which […].

[4] = tested on: sunflower restorer line TH12 (A122T); assay: Greenhouse imazapir dose response, TH12; conditions: 14 DAT
Description: as §1, §2, §3

CC(C)C1(C)N=C(c2ncccc2C(=O)O)NC1=O (centres unmarked) [Imazapyr, imazapyr]
biomass accumulation, % of untreated ([1]; 0.5x (40 g ai/ha)): 92.9% | plant height, % of untreated ([1]; 0.5x (40 g ai/ha)): 79.1% | root dry weight, % of untreated ([1]; 0.5x (40 g ai/ha)): 79.2% | biomass accumulation, % of untreated ([1]; 1x (80 g ai/ha)): 75.1% | plant height, % of untreated ([1]; 1x (80 g ai/ha)): 76.7% | root dry weight, % of untreated ([1]; 1x (80 g ai/ha)): 56.3% | biomass accumulation, % of untreated ([1]; 2x (160 g ai/ha)): 55.1% | plant height, % of untreated ([1]; 2x (160 g ai/ha)): 57.7% | root dry weight, % of untreated ([1]; 2x (160 g ai/ha)): 40.6% | biomass accumulation, % of untreated ([1]; 3x (240 g ai/ha)): 45.6% | plant height, % of untreated ([1]; 3x (240 g ai/ha)): 55.3% | root dry weight, % of untreated ([1]; 3x (240 g ai/ha)): 40.2% | biomass accumulation, % of untreated ([1]; 4x (320 g ai/ha)): 31.8% | plant height, % of untreated ([1]; 4x (320 g ai/ha)): 27.3% | root dry weight, % of untreated ([1]; 4x (320 g ai/ha)): 34.0% | biomass accumulation, % of untreated ([1]; 5x (400 g ai/ha)): 34.2% | plant height, % of untreated ([1]; 5x (400 g ai/ha)): 37.2% | root dry weight, % of untreated ([1]; 5x (400 g ai/ha)): 48.5% | biomass accumulation, % of untreated ([1]; 6x (480 g ai/ha)): 36.8% | plant height, % of untreated ([1]; 6x (480 g ai/ha)): 30.0% | root dry weight, % of untreated ([1]; 6x (480 g ai/ha)): 43.1% | biomass accumulation, % of untreated ([2]; 0.5x (40 g ai/ha)): 100.0% | plant height, % of untreated ([2]; 0.5x (40 g ai/ha)): 100.0% | root dry weight, % of untreated ([2]; 0.5x (40 g ai/ha)): 100% | biomass accumulation, % of untreated ([2]; 1x (80 g ai/ha)): 96.4% | plant height, % of untreated ([2]; 1x (80 g ai/ha)): 100.0% | root dry weight, % of untreated ([2]; 1x (80 g ai/ha)): 88.0% | biomass accumulation, % of untreated ([2]; 2x (160 g ai/ha)): 97.7% | plant height, % of untreated ([2]; 2x (160 g ai/ha)): 99.1% | root dry weight, % of untreated ([2]; 2x (160 g ai/ha)): 90.0% | biomass accumulation, % of untreated ([2]; 3x (240 g ai/ha)): 95.8% | plant height, % of untreated ([2]; 3x (240 g ai/ha)): 98.1% | root dry weight, % of untreated ([2]; 3x (240 g ai/ha)): 98.0% | biomass accumulation, % of untreated ([2]; 4x (320 g ai/ha)): 90.8% | plant height, % of untreated ([2]; 4x (320 g ai/ha)): 91.0% | root dry weight, % of untreated ([2]; 4x (320 g ai/ha)): 80.0% | biomass accumulation, % of untreated ([2]; 5x (400 g ai/ha)): 81.9% | plant height, % of untreated ([2]; 5x (400 g ai/ha)): 94.3% | root dry weight, % of untreated ([2]; 5x (400 g ai/ha)): 80.0% | biomass accumulation, % of untreated ([2]; 6x (480 g ai/ha)): 78.0% | plant height, % of untreated ([2]; 6x (480 g ai/ha)): 85.8% | root dry weight, % of untreated ([2]; 6x (480 g ai/ha)): 65.8% | Injury at 14 DAT [3]: 8.2 days | Phytotoxicity Index ([4]; 0.5x (40 g ai/ha)): 0.0 | biomass accumulation, % of untreated ([4]; 0.5x (40 g ai/ha)): 100.0% | plant height, % of untreated ([4]; 0.5x (40 g ai/ha)): 100.0% | root dry weight, % of untreated ([4]; 0.5x (40 g ai/ha)): 99.4% | Phytotoxicity Index ([4]; 1x (80 g ai/ha)): 0.0 | biomass accumulation, % of untreated ([4]; 1x (80 g ai/ha)): 99.1% | plant height, % of untreated ([4]; 1x (80 g ai/ha)): 100.0% | root dry weight, % of untreated ([4]; 1x (80 g ai/ha)): 100% | Phytotoxicity Index ([4]; 2x (160 g ai/ha)): 0.0 | biomass accumulation, % of untreated ([4]; 2x (160 g ai/ha)): 97.0% | plant height, % of untreated ([4]; 2x (160 g ai/ha)): 101.8% | root dry weight, % of untreated ([4]; 2x (160 g ai/ha)): 100% | Phytotoxicity Index ([4]; 3x (240 g ai/ha)): 0.0 | biomass accumulation, % of untreated ([4]; 3x (240 g ai/ha)): 96.1% | plant height, % of untreated ([4]; 3x (240 g ai/ha)): 97.0% | root dry weight, % of untreated ([4]; 3x (240 g ai/ha)): 100.0% | Phytotoxicity Index ([4]; 4x (320 g ai/ha)): 0.0 | biomass accumulation, % of untreated ([4]; 4x (320 g ai/ha)): 84.3% | plant height, % of untreated ([4]; 4x (320 g ai/ha)): 92.1% | root dry weight, % of untreated ([4]; 4x (320 g ai/ha)): 74.5% | Phytotoxicity Index ([4]; 5x (400 g ai/ha)): 0.0 | biomass accumulation, % of untreated ([4]; 5x (400 g ai/ha)): 77.5% | plant height, % of untreated ([4]; 5x (400 g ai/ha)): 84.8% | root dry weight, % of untreated ([4]; 5x (400 g ai/ha)): 65.0% | Phytotoxicity Index ([4]; 6x (480 g ai/ha)): 0.5 | biomass accumulation, % of untreated ([4]; 6x (480 g ai/ha)): 70.7% | plant height, % of untreated ([4]; 6x (480 g ai/ha)): 79.8% | root dry weight, % of untreated ([4]; 6x (480 g ai/ha)): 57.8%
